Values after ≈ are worked out from the molar mass of the structure shown.
Columns and labels:
Pseudomonas aeruginosa = test: Assessment of bacterial resistance by serial exposure, MIC; format: cell-based; details: serial passages (FIG. 2)
From the text: (§1) A central consideration in the development of novel antimicrobials is potential generation of bacterial resistance. […] See Pollard J E, et al. J. Antimicrob. Chemother. 2012, 67, 2665-2672 (describing experimental protocol).

Staphylococcus aureus = test: as above; format: cell-based; details: after 30 serial passages
From the text: as §1

[1] = system: tobramycin-resistant P. aeruginosa strains; test: MIC against tobramycin resistant strains (cross-resistance); format: cell-based; details: seven tobramycin resistant P. aeruginosa strains (FIG. 3)
From the text: Tobramycin is commonly used in reducing the bacterial burden in the lungs of cystic fibrosis patients. However, resistance to tobramycin is often observed among P. aeruginosa isolates. Tobramycin resistance is typically achieved by acylation or phosphorylation of the primary amine groups in the antibiotic.
Similar studies can be conducted for other drug-resistant pathogenic strains following this standard experimental protocol.

P. aeruginosa = test: Drug combinations of CSAs and anti-pathogenic substances (synergy); format: cell-based
Experimental: Following the protocols outlined in Appl. Microbiol. Biotechnol., 2010 (September) pp. 251-63 and Chemotherapy, 2011 (November), Vol. 57, pp. 505-10, drug combinations involving CSAs and anti-pathogenic substances are performed.

P. aeruginosa (PAO1) [2] = test: MIC against infection-model strain; format: cell-based
P. aeruginosa (PAO1) [3] = test: Animal model of lung infection, bacterial counts in lung tissue; format: in vivo, mice; details: for elimination of the bacterial burden: 80 mg/kg via nebulization; for reduction in bacterial burden: 80 mg/kg via nebulization four hours after infection
Experimental: In vivo studies were designed to allow observation of both tolerance for CSAs and effectiveness of the antimicrobial in reducing bacterial burden. An infection model was used in which mice were inoculated with P. aeruginosa (PAO1) intra-nasally (10^5 CFU) to establish an infection. […] Two doses were used: 40 and 80 mg/kg. […] After 24 h, the mice were euthanized, and lung tissues were homogenized. Bacterial counts were determined by serial dilution, plating on nutrient agar, incubation, and colony counting. As a comparator, tobramycin was administered via the same route, and P. aeruginosa counts were determined.
(§2) IL-6 was measured from kidney tissue specimens.

IL-6 = IL-6 levels in murine pneumonia model; format: in vivo, mice; details: inhaled, 40 and 80 mg/kg; IL-6 measured from kidney tissue specimens (FIG. 5)
Experimental: as §2

[4] = system: inflammatory cells around bronchioles in lungs; test: Murine lung histology in pneumonia model; format: in vivo, mice; details: 4 hours post challenge with Pseudomonas PA01
Experimental: In this experiment, mice were infected with 10^8 PA01 strain of Pseudomonas, representing a murine pneumonia model. […] The CSA treatment was administered 4 hours post challenge with Pseudomonas.

reduction of the MIC of erythromycin (P. aeruginosa; CSA-13 administered with erythromycin) [%] | Compound | MIC at which the rise appeared to level off (Pseudomonas aeruginosa) [µg/mL] | change in Minimum Inhibitory Concentration (MIC) (Staphylococcus aureus) | susceptibility of tobramycin resistant strains [1] | synergy (P. aeruginosa; combined with ciprofloxaxin) | synergy (P. aeruginosa; combined with tobramycin) | synergistic result (P. aeruginosa; in combination with colistin, against P. aeruginosa) [%] | MIC (P. aeruginosa (PAO1) [2]) [µg/mL] | drop in bacterial counts (P. aeruginosa (PAO1) [3]; 40 mg/kg via nebulization four hours after infection, lung counts after 24 h) | elimination of the bacterial burden (P. aeruginosa (PAO1) [3]) [%] | reduction in bacterial burden (P. aeruginosa (PAO1) [3]; lung counts after 24 h) | Pseudomonas load (P. aeruginosa (PAO1) [3]; inhaled, 40 and 80 mg/kg, murine pneumonia model (FIG. 5)) | IL-6 levels (IL-6) | inflammatory cells in lung histology ([4]; 40 mg/kg dose) | inflammatory cells in lung histology ([4]; 80 mg/kg dose)
 | CCCCCCCCNCCC[C@@H](C)[C@H]1CC[C@H]2[C@@H]3[C@H](OCCCN)C[C@@H]4C[C@H](OCCCN)CC[C@]4(C)[C@H]3C[C@H](OCCCN)[C@]12C [CSA-13] | ~20 (≈ 29.5 µM) | no significant change | all strains were comparably susceptible | Additional synergies were observed | Additional synergies were observed | 54 | 2.5 (≈ 3.69 µM) | two | 99.99 | greater than four | reduced | reduced | substantial reduction of inflammatory cells | even greater reduction in inflammatory cells
92 | CC[C@H]1OC(=O)[C@H](C)[C@@H](O[C@H]2C[C@@](C)(OC)[C@@H](O)[C@H](C)O2)[C@H](C)[C@@H](O[C@@H]2O[C@H](C)C[C@H](N(C)C)[C@H]2O)[C@](C)(O)C[C@@H](C)C(=O)[C@H](C)[C@@H](O)[C@]1(C)O [erythromycin, reference compound] |  |  |  |  |  |  |  |  |  |  |  |  |  | 
 | NC[C@H]1O[C@H](O[C@H]2[C@H](O)[C@@H](O[C@H]3O[C@H](CO)[C@@H](O)[C@H](N)[C@H]3O)[C@H](N)C[C@@H]2N)[C@H](N)C[C@@H]1O [tobramycin, reference compound] |  |  | varied significantly |  |  |  |  |  | 99.99 | greater than four |  |  |  | 
